Test results taken from article PMC12040169 (PLOS Biology, 2025).
≈ marks a conversion by molar mass, not a printed value.

Experiments:
[1] = biological target: T1, ctFabH (CTL2 FabH), His6(-fMet)SG-ctFabH (Chlamydia trachomatis, UniProt O84242); experiment: continuous UV assay of acetoacetyl-CoA at […] nm; assay type: biochemical; conditions: 20 µM enzyme, 100 µM acetyl-CoA, 100 µM malonyl-CoA, pH 8.0, 25 °C, 50 mM MgCl2
T1 construct: synthetic gene, modified pRSF-Duet1, E. coli host; partly acylated (mainly pentanoyl) as purified
T1 sequence (O84242 2-327): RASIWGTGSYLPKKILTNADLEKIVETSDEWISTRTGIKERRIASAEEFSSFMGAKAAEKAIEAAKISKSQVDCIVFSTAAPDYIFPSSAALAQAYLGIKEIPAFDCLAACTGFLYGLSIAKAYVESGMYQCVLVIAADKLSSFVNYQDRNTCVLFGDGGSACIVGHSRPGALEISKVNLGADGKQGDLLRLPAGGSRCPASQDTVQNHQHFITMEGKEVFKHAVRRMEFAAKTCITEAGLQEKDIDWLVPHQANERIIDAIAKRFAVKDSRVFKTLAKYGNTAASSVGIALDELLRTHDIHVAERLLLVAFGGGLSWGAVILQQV

[2] = tested on: T2, B. adolescentis; experiment: microbe, parasite or virus in culture; parameters: Microbial growth in liquid dilution assay, OD600 relative to DMSO control; conditions: Bifidobacterium adolescentis; estimated IC50; read-out: B. adolescentis, IC50 (µM) estimate
T2 construct: DSM 20083
Source text: (§1) Compound effects on commensal microbes in dilution assay As our objective was to discover compounds that inhibit Chlamydia selectively but spare commensal bacteria, we further tested 15 of our top compounds (c1e–c10e and c1v–c5v) against five bacterial species, Escherichia coli, Lactobacillus reuteri, Enterococcus faecalis, Bacteroides thetaiotaomicron, and Bifidobacterium adolescentis, representing the four dominating phyla of the human gut microbiota. […] Exceptions were c3e and c5e, which at 30 µM were inhibitory to some species. […] Of note, c1e–c3e had little or no effect on the growth of an even larger set of species of gut bacteria, also including Blautia coccoides, Prevotella copri, Prevotella histicola, Bacteroides fragilis, and Dubosiella newyorkensis, when tested in radial diffusion assays, in which the bacteria were exposed to compounds for 24–48 h before measurements of growth inhibition zones (S10B Fig and S5G Data).

[3] = tested on: T3, B. thetaiotaomicron; experiment: microbe, parasite or virus in culture; parameters: Microbial growth in liquid dilution assay, OD600 relative to DMSO control; conditions: Bacteroides thetaiotaomicron; estimated IC50; read-out: B. thetaiotaomicron, IC50 (µM) estimate
T3 construct: DSM 2079
Source text: as §1

[4] = tested on: T4, E. coli; experiment: microbe, parasite or virus in culture; parameters: Microbial growth in liquid dilution assay, OD600 relative to DMSO control; conditions: Escherichia coli; estimated IC50; read-out: E. coli, IC50 (µM) estimate
T4 construct: DSM 301
Source text: as §1

[5] = tested on: T5, E. faecalis; experiment: microbe, parasite or virus in culture; parameters: Microbial growth in liquid dilution assay, OD600 relative to DMSO control; conditions: Enterococcus faecalis; estimated IC50; read-out: E. faecalis, IC50 (µM) estimate
T5 construct: DSM 20478
Source text: as §1

[6] = tested on: T6, L. reuteri; experiment: microbe, parasite or virus in culture; parameters: Microbial growth in liquid dilution assay, OD600 relative to DMSO control; conditions: Limosilactobacillus reuteri; estimated IC50; read-out: L. reuteri, IC50 (µM) estimate
T6 construct: DSM 20016
Source text: as §1

[7] = tested on: T7, L. crispatus; experiment: microbe, parasite or virus in culture; parameters: Microbial growth in liquid dilution assay, OD600 relative to DMSO control; conditions: Lactobacillus crispatus; estimated IC50; read-out: L. crispatus, IC50 (µM) estimate
T7 construct: DSM 20584

[8] = tested on: T8, L. iners; experiment: organism not typed; parameters: Microbial growth in liquid dilution assay, OD600 relative to DMSO control; conditions: estimated IC50; read-out: L. iners, IC50 (µM) estimate
T8 construct: DSM 13335

[9] = tested on: T9, G. vaginalis; experiment: microbe, parasite or virus in culture; parameters: Microbial growth in liquid dilution assay, OD600 relative to DMSO control; conditions: Gardnerella vaginalis, read-out: G. vaginalis, IC50 (µM) estimate
T9 construct: DSM 4944

[10] = tested on: T10, C. albicans; experiment: microbe, parasite or virus in culture; parameters: Microbial growth in liquid dilution assay, OD600 relative to DMSO control; conditions: Candida albicans, read-out: C. albicans, IC50 (µM) estimate
T10 construct: DSM 1577

[11] = tested on: T11, CTL2-GFP (C. trachomatis L2/434/Bu, GFP-expressing); experiment: microbe, parasite or virus in culture; parameters: Intracellular C. trachomatis growth in HeLa cells, bulk GFP fluorescence relative to DMSO; conditions: Chlamydia trachomatis, HeLa, 28.5 h; bulk GFP
T11 construct: L2/434/Bu, GFP-expressing
Procedure: (§2) MICs were calculated as described above.

[12] = tested on: T11, CTL2-GFP (C. trachomatis L2/434/Bu, GFP-expressing); experiment: microbe, parasite or virus in culture; parameters: species or system HeLa; Intracellular C. trachomatis growth in HeLa cells, bulk GFP fluorescence relative to DMSO; conditions: Chlamydia trachomatis, 28.5 h; bulk GFP
Procedure: as §2

[13] = in vitro; parameters: Viability of infected HeLa host cells, resazurin conversion, bulk resorufin fluorescence relative to DMSO; conditions: human, hela cells; bulk resorufin, mean of 3
[14] = tested on: T11, CTL2-GFP (C. trachomatis L2/434/Bu, GFP-expressing); experiment: microbe, parasite or virus in culture; parameters: C. trachomatis growth in HeLa, dose-response, mean of bulk GFP fluorescence and imaged total inclusion area; conditions: Chlamydia trachomatis, HeLa, 28.5 h; mean of GFP and inclusion area
In short: (§3)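 A 36,785-compound library was screened using bulk GFP and resorufin fluorescence, followed by Hoechst staining and high-content imaging of inclusions (GFP) and host nuclei. Inclusion area and number served as growth proxies and nuclei counts as a viability proxy. MICs were calculated from these readouts.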

[15] = tested on: T11, CTL2-GFP (C. trachomatis L2/434/Bu, GFP-expressing); experiment: microbe, parasite or virus in culture; parameters: species or system HeLa; C. trachomatis growth in HeLa, dose-response, mean of bulk GFP fluorescence and imaged total inclusion area; conditions: Chlamydia trachomatis, 28.5 h; mean of GFP and inclusion area
In short: as §3

[16] = biological target: T12, acyl-modification-free ctFabH (Chlamydia trachomatis, UniProt O84242); experiment: intact protein LC/MS; assay type: biochemical; conditions: covalent acyl-enzyme intermediate; 10 µM protein, 50 µM acyl-CoA, pH 7.0
T12 construct: gene fabH
T12 sequence (O84242 2-327): T1 sequence (O84242 2-327)

Compound	IC50 [2] [µM]	IC50 [3] [µM]	IC50 [4] [µM]	IC50 [5] [µM]	IC50 [6] [µM]	IC50 [7] [µM]	IC50 [8] [µM]	viability at 28.5 h, 0.000416667 µM [13] [%]	viability at 28.5 h, 0.00125 µM [13] [%]	viability at 28.5 h, 0.00375 µM [13] [%]	viability at 28.5 h, 0.0123333 µM [13] [%]	viability at 28.5 h, 0.037 µM [13] [%]	viability at 28.5 h, 0.111 µM [13] [%]	viability at 28.5 h, 0.333 µM [13] [%]	viability at 28.5 h, 1 µM [13] [%]	viability at 28.5 h, 3 µM [13] [%]	viability at 28.5 h, 10 µM [13] [%]	viability at 28.5 h, 30 µM [13] [%]	IC50 [14] [µM]	MIC [15] [µM]	also measured
CC(=O)SCCNC(=O)CCNC(=O)[C@H](O)C(C)(C)COP(=O)(O)OP(=O)(O)OC[C@H]1O[C@@H](n2cnc3c(N)ncnc32)[C@H](O)[C@@H]1OP(=O)(O)O [acetyl-CoA]	–	–	–	–	–	–	–	–	–	–	–	–	–	–	–	–	–	–	–	–	continuous UV assay of acetoacetyl-CoA at 302 nm [1]: using acetyl-CoA and malonyl-CoA (instead of malonyl-ACP) as substrates
Cc1noc(NS(=O)(=O)c2ccc(NC(=O)CSc3nc4ccccc4s3)cc2)c1C [c1v]	> 30	> 30	> 30	> 30	> 30	> 30	> 30	–	–	–	–	–	–	–	–	–	–	–	–	–	IC50 [9]: > 30 µM; IC50 [10]: > 30 µM; IC50 [11]: 0.412 µM; MIC [12]: 0.552 µM (≈ 0.262 µg/mL)
O=C(c1ccc(-c2ccc(F)cc2)o1)N1C[C@H]2CC[C@](O)(c3ccc(F)cc3)[C@H]2C1 [c2e]	> 30	> 30	> 30	> 30	> 30	> 30	> 30	90.3	85.8	93.6	89	91.7	95.5	95.7	93.7	98.2	98.8	116	0.0961	0.139 (≈ 0.0569 µg/mL)	IC50 [9]: > 30 µM; IC50 [10]: > 30 µM
O=C(N/N=C\c1ccc([N+](=O)[O-])o1)c1nc(-c2ccccc2)cc(-c2ccccc2)n1 [c3e]	18.3	10.3	> 30	15.4	> 30	> 30	> 30	92	92.4	88.3	89.2	86.8	92.2	91.6	90.7	90	98.9	107	0.126	–	IC50 [9]: > 30 µM; IC50 [10]: > 30 µM
c1c(C2CC2)[nH]c2nc(N3CCCC3)nc(N3CCCC3)c12 [c7e]	> 30	> 30	> 30	> 30	> 30	–	–	88.8	85.2	86.7	86.6	89.7	85.9	89.7	87.4	89.6	86.6	81.1	0.443	0.669 (≈ 0.199 µg/mL)	–
C1=C(CCNCCc2ccccc2)c2ccccc2C12CCCC2 [c51e]	–	–	–	–	–	–	–	99.8	96.2	101	98.1	101	97.8	99.6	102	100	106	96.5	8.3	9.36 (≈ 2.97 µg/mL)	–
COc1ccc(CC(=O)N2CCCC(c3nc(C)c4c(n3)N(CC3CC3)CCC4)C2)cc1 (stereo not shown) [c52e]	–	–	–	–	–	–	–	85.5	91.1	88.5	92.2	88.5	91.4	88.5	96.8	90.3	95.6	102	8.46	9.34 (≈ 4.06 µg/mL)	–
CC(C)CC(=O)SCCNC(=O)CCNC(=O)[C@H](O)C(C)(C)COP(=O)(O)OP(=O)(O)OC[C@H]1O[C@@H](n2cnc3c(N)ncnc32)[C@H](O)[C@@H]1OP(=O)(O)O [isovaleryl-CoA]	–	–	–	–	–	–	–	–	–	–	–	–	–	–	–	–	–	–	–	–	intact protein LC/MS [16]: 2-methylbutyryl-CoA or isovaleryl-CoA, as expected, generated the corresponding acyl-enzyme intermediates
